Reference: US20100041897A1, “Process for preparing a crystalline form of candesartan cilexetil” (CHEMO IBERICA, S.A., priority 2006, published 2010)
“Also recorded” adds a separate entry of the source.

Columns and labels:
[1] = Accelerated stability test at 80° C., impurities determined by HPLC; assay type: physicochemical; details: product of crystallization assay from acetone/water 3:1 v/v, 80° C. for 5 to 9 days
[2] = as above; assay type: physicochemical; details: for stability in accelerated stability test (in words): 80° C.
Protocol: In order to determine the influence of Form II on the stability of candesartan cilexetil Form I, samples with different proportions of Form II were prepared and subjected to an accelerated stability test at a temperature of 80° C. for different periods of time up to 9 days. Once the time period elapsed, the samples were analyzed by HPLC for the determination of the content of impurities, according to the method described in the Examples. Samples of candesartan cilexetil Form I containing different proportions of Form II were prepared from the products obtained in Example 2 and Preparative Example 1. The samples were exposed to an accelerated stability test at a temperature of 80° C. for different time periods up to 9 days. Once the time period has elapsed, the samples were analyzed by HPLC for the determination of the content of impurities. Impurities corresponding to the following retention times: 8.3, 10.4, 12.5, 14.1 and 16.4 minutes were identified in the HPLC chromatograms. The HPLC analysis of impurities was carried out in a HPLC system with UV detector (Waters Alliance), with a L1-type column according to US Pharmacopeia nomenclature, at a temperature of 30° C., with a flow rate of 1 ml/min, an injection volume of 10 μl, and an UV detector at 210 nm. The mobile phase was constituted by a mixture of solution A (v/v) (aqueous 0.1% v/v trifluoroacetic acid buffer) and acetonitrile. During the analysis the mobile phase contained 45% of Solution A and 55% of acetonitrile, except for the period comprised from minute 15 to minute 25 wherein a mixture of 5% Solution A and 95% acetonitrile was used. The sample was prepared dissolving 0.2 mg of the sample in 1 ml of mobile phase. The sum of the impurities refers to the sum of areas recorded in the HPLC chromatogram corresponding to the degradation impurities detected at the retention times above specified.

[3] = solid sample kept at 80° C. for 9 days
[4] = solid sample kept at 80° C. for 7 days

## CCOc1nc2cccc(C(=O)OC(C)OC(=O)OC3CCCCC3)c2n1Cc1ccc(-c2ccccc2-c2nnn[nH]2)cc1 (centres unmarked) [Assay 3, candesartan cilexetil]
[1]; listed as 3
  Stability: Poor

## CCOc1nc2cccc(C(=O)OC(C)OC(=O)OC3CCCCC3)c2n1Cc1ccc(-c2ccccc2-c2nnn[nH]2)cc1 (centres unmarked) [Form II (Preparative Example 1), 2-ethoxy-1-[[2′-(1H-tetrazol-5-yl)[1,1′-biphenyl]-4-yl]methyl]-1H-benzimidazole-7-carboxylic acid, 1-[[(cyclohexyloxy)carbonyl]oxy]ethyl ester, reference compound]
[2]; 80° C. for 5 days, calculated from the areas of the HPLC chromatogram
  content of impurities: 60 % (w/w)
[2]; listed as Form II
  stability in accelerated stability test (in words): unstable; also recorded: high instability
[2]; solid sample kept at 80° C. for 5 days
  Sum of impurities (% HPLC area): 59.98 % HPLC area

## CCOc1nc2cccc(C(=O)OC(C)OC(=O)OC3CCCCC3)c2n1Cc1ccc(-c2ccccc2-c2nnn[nH]2)cc1 (centres unmarked) [Form I + 0.1% of Form II, candesartan cilexetil]
[2]; [3]
  Sum of impurities (% HPLC area): 0.96 % HPLC area

## CCOc1nc2cccc(C(=O)OC(C)OC(=O)OC3CCCCC3)c2n1Cc1ccc(-c2ccccc2-c2nnn[nH]2)cc1 (centres unmarked) [Form I (Example 2), 2-ethoxy-1-[[2′-(1H-tetrazol-5-yl)[1,1′-biphenyl]-4-yl]methyl]-1H-benzimidazole-7-carboxylic acid, 1-[[(cyclohexyloxy)carbonyl]oxy]ethyl ester]
[2]; listed as candesartan cilexetil Form I
  stability in accelerated stability test (in words): good stability; also recorded: high stability
[2]; [4]
  Sum of impurities (% HPLC area): 0.34 % HPLC area

## CCOc1nc2cccc(C(=O)OC(C)OC(=O)OC3CCCCC3)c2n1Cc1ccc(-c2ccccc2-c2nnn[nH]2)cc1 (centres unmarked) [Form I + 1.0% of Form II, candesartan cilexetil]
[2]; [4]
  Sum of impurities (% HPLC area): 2.00 % HPLC area

## CCOc1nc2cccc(C(=O)OC(C)OC(=O)OC3CCCCC3)c2n1Cc1ccc(-c2ccccc2-c2nnn[nH]2)cc1 (centres unmarked) [Form I + 10.0% of Form II, candesartan cilexetil]
[2]; [4]
  Sum of impurities (% HPLC area): 12.78 % HPLC area

## CCOc1nc2cccc(C(=O)OC(C)OC(=O)OC3CCCCC3)c2n1Cc1ccc(-c2ccccc2-c2nnn[nH]2)cc1 (centres unmarked) [Form I + 5.0% of Form II, candesartan cilexetil]
[2]; [4]
  Sum of impurities (% HPLC area): 6.65 % HPLC area

## CCOc1nc2cccc(C(=O)OC(C)OC(=O)OC3CCCCC3)c2n1Cc1ccc(-c2ccccc2-c2nnn[nH]2)cc1 (centres unmarked) [Example 1, candesartan cilexetil]
[1]
  Stability: Poor

## CCOc1nc2cccc(C(=O)OC(C)OC(=O)OC3CCCCC3)c2n1Cc1ccc(-c2ccccc2-c2nnn[nH]2)cc1 (centres unmarked) [Form I + 0.3% of Form II, candesartan cilexetil]
[2]; [3]
  Sum of impurities (% HPLC area): 1.21 % HPLC area

## CCOc1nc2cccc(C(=O)OC(C)OC(=O)OC3CCCCC3)c2n1Cc1ccc(-c2ccccc2-c2nnn[nH]2)cc1 (centres unmarked) [Comparative Example 2, candesartan cilexetil]
[2]
  stability in accelerated stability test (in words): deficient stability

## CCOc1nc2cccc(C(=O)OC(C)OC(=O)OC3CCCCC3)c2n1Cc1ccc(-c2ccccc2-c2nnn[nH]2)cc1 (centres unmarked) [Form I + 2.0% of Form II, candesartan cilexetil]
[2]; [4]
  Sum of impurities (% HPLC area): 2.88 % HPLC area

## CCOc1nc2cccc(C(=O)OC(C)OC(=O)OC3CCCCC3)c2n1Cc1ccc(-c2ccccc2-c2nnn[nH]2)cc1 (centres unmarked) [Form I + 0.5% of Form II, candesartan cilexetil]
[2]; [4]
  Sum of impurities (% HPLC area): 1.46 % HPLC area

## CCOc1nc2cccc(C(=O)OC(C)OC(=O)OC3CCCCC3)c2n1Cc1ccc(-c2ccccc2-c2nnn[nH]2)cc1 (centres unmarked) [Form I + 20.0% of Form II, candesartan cilexetil]
[2]; [4]
  Sum of impurities (% HPLC area): 23.20 % HPLC area

## CCOc1nc2cccc(C(=O)OC(C)OC(=O)OC3CCCCC3)c2n1Cc1ccc(-c2ccccc2-c2nnn[nH]2)cc1 (centres unmarked) [Assay 4, candesartan cilexetil]
[1]; listed as 4
  Stability: Good
